Experimental data from patent US8653132B2, “Phosphaplatins and their use in pharmaceutical compositions” (Ohio University, priority 2007, dated 2014).

Legend:
TNFRSF-10B = test: Apoptotic gene array, real-time PCR: TNFRSF-10B; type: cell-based; settings: preliminary
Protocol: (§1) Preliminary gene expression experiments involving complexes of the present invention as compared to cisplatin (data not shown) were carried out with an apoptotic array containing 84 genes that includes the BCL2 superfamily, both pro- and anti-apoptotic, caspases, the BIR-family, TNF receptor […] factors, p53 and its congeners, and fas associated members by real-time PCR. A closer look at the two sets of gene expressions clearly indicates a number of differences in the expression patterns. […] Specifically, fas was over-expressed by 6-fold compared to the control, and TNFRS genes such as TNFRSF-10B was overexpressed by 2-3 folds over controls. These latter receptor factors belong to the fas superfamily.

A2780 cells = test: Cellular accumulation of platinum by atomic absorption, A2780; type: cell-based, human; settings: for Cellular accumulation of platinum: 1 hr exposure
Protocol: Platinum content was quantitatively estimated on a Graphite Furnace Atomic Absorption Spectrometer (Perkin Elmer AA-600) from calibration curves established by using cisplatin or pyrodach-2 in water. Cells (5×10^6) were seeded in T75 cm^2 flasks. After 24 h, these cells were then treated with the different concentrations (0, 10, 20, 30 and 50 μM) of cisplatin and pyrodach-2. After 1 hr exposure with the platinum complexes, the drug-containing medium was removed and the cells were washed with ice-cold phosphate-buffered saline (PBS). The cells were then trypsinized and centrifuged into a pellet. Cell pellets were digested in concentrated HNO3 and H2O2 prior to analysis, according to the method of McGahan. Data reported in Table 4 were collected from three independent experiments each was carried out in duplicate. For the cisplatin accumulation, data were obtained from triplicate runs from a single sample at a given concentration.

[1] = system: A2780 human ovarian cancer cells; test: Clonogenic assay, A2780; type: cell-based; settings: 1 hour drug treatment, 1 week colony formation, read-out: IC50 A780
Protocol: Human ovarian cancer cells, A2780, were obtained from Dr. Thomas Hamilton (Fox Chase Cancer Center, Philadelphia, Pa.). Cells were cultured on monolayer using RPMI 1640 supplemented with 10% fetal bovine serum, 2 mM glutamine, 0.25 units/mL insulin and penicillin/streptomycin in a 37 degrees C. incubator continuously gassed with 5% CO2. Cells were subcultured using 0.0625% trypsin in HBSS to maintain cells in exponential growth.
IC50 values were determined using a clonogenic assay. Briefly, 500 A2780 cells from a single cell suspension were plated onto 60mm Petri plates 24 hours before drug treatment to permit cell attachment. On the day of drug treatment, the medium was decanted and replaced with the drug and these treated cells were placed back into the 37 degrees C. incubator for 1 hour. Triplicate plates were set up for each drug concentration. After the 1 hour drug treatment, the drug containing medium was decanted and replaced with fresh medium. These plates were returned to the 37 degrees C. incubator for 1 week for colony formation. Colonies were fixed and stained using 2% crystal violet in absolute methanol. Colonies containing more than 50 cells were scored. The number of scored colonies from the triplicate plates was averaged and this number was divided by the number of cells plated to obtain a value for the fraction of cells forming colonies. These values for fraction of cells forming colonies were then corrected for plating efficiency by dividing it by the number of cells forming colonies in plates that were not treated with drug.

A2780/C30 cells = test: Cellular accumulation of platinum by atomic absorption, A2780/C30; type: cell-based, human; settings: at its IC50 value
DNA of A2780 cells = test: DNA-bound platinum in cells by atomic absorption; type: cell-based, human; settings: up to 50 micromolar, treated up to 24 hours
Protocol: For DNA-Pt measurements, 1.0×10^7 cells were seeded in T75 cm^2 flasks. After 24 hr, the platinum complexes were added at the different concentrations 0, 10, 20, 30 and 50 μM. Cells were treated with the platinum complexes for 24 hours. Following treatment, the medium was removed and cells were washed with ice-cold PBS. The cells were trypsinized and centrifuged into a pellet. DNA was extracted using a Wizard® SV DNA purification kit (Promega). The DNA was quantitatively estimated from the absorption at 260 nm using a NanoDrop UV-Vis instrument.

[2] = Stability in aqueous solution by 31P NMR; type: physicochemical
Protocol: Starting with the bottom spectrum in each panel, spectra were recorded at 24 hour time intervals.
At neutral pH, the isolated monomeric Pt(II) and Pl(IV) complexes of the present invention are stable. […] However, in the same time interval, slow deligation due to the release of the pyrophosphate ligand was evident at pH 4.2 by the appearance of the free pyrophosphate signal at −10.3 ppm. At the same time, an insoluble pyrophosphate-bridged dinuclear platinum(II) product was formed.

[3] = system: synthetic 25-mer oligonucleotide (SEQ ID NO:1); test: Platinum-DNA binding by NMR, 25-mer oligonucleotide; settings: 1H NMR, identical conditions for both complexes
Protocol: In the associated experiment, dach-2 was allowed to react with double-stranded calf-thymus DNA, a synthetic oligonucleotide (5′-[…]-3′; SEQ ID NO:1), a dinucleotide (dGpG), and nucleotide monophosphates (5′-dGMP and 5′-dAMP) at concentrations as much as 250-times higher than those of cellular doses. The extent of DNA binding was monitored by ^1H NMR spectroscopy. In parallel, similar reactions with cisplatin were conducted under identical conditions.
Proton NMR spectroscopic experiments were conducted on a Bruker 500 MHz NMR instrument in 99% (atom) D2O with a water suppression pulse sequence. Samples contained cisplatin (2.0 mM) or pyrodach-2 (2.0 mM) and nucleotides (5′-dGMP, 5′-dAMP, dGpG (5.0 mM)), and, single- and double stranded DNA (calf thymus, 5.0 mM) at pH 7.0 maintained by phosphate and carbonate buffers (10-20 mM). Reactions of cisplatin (0.25 mM) and pyrodach-2 (0.25 mM) with a synthetic 25-mer: 5′-[…]-3′ (SEQ ID NO: 1) (0.25 mM) were also performed under identical conditions. Reactions were carried out up to 7 days, and ^1H and ^31P NMR spectra were recorded at regular time intervals. Usually, a pulse width of 5 μs with a 1.0 s repetition delay was used for the measurements. Typically, a sweepwidth of 10,000 Hz and 32 K data points were selected to collect the Free Induction Decays. A line broadening factor of 1 Hz was for applied Fourier transformation. […]

BAK1 = test: Apoptotic gene array, real-time PCR: BAK1; type: cell-based; settings: preliminary
Protocol: as §1

CHO cell line = test: Cytotoxic assay, CHO; type: cell-based
Description: In some embodiments, the complexes of the present invention are useful for treating various cancers. […] The complexes of the present invention are particularly desirable because they may have reduced toxicity in vivo.

With `NC1CCCCC1N.O=P([O-])(O)OP(=O)([O-])O.[Pt+2]` [dach-2, (Trans-1,2-cyclohexanediamine)(dihydrogenpyrophosphato)platinum(II)] the “TNFRSF-10B overexpression over controls” value (TNFRSF-10B) was 2-3 folds, the “Cellular accumulation of platinum” value (A2780 cells; A2780, 10 μM) was 1.00 ± 0.10 ng/10^6 cells and the “Cellular accumulation of platinum” value (A2780 cells; A2780, 20 μM) was 1.50 ± 0.30 ng/10^6 cells. The “Cellular accumulation of platinum” value (A2780 cells; A2780, 30 μM) was 3.00 ± 1.00 ng/10^6 cells, the “Cellular accumulation of platinum” value (A2780 cells; A2780, 50 μM) was 5.00 ± 0.30 ng/10^6 cells and the “accumulation in A2780 cells” value (A2780 cells; at 10 μM concentration) was 1.0 ng Pt/10^6 cells. The IC50 [1] was 20 ± 4 µM, the “platinum accumulation in the resistant cell lines” value (A2780/C30 cells) was 1.4 ng Pt/10^6 cells and the DNA-bound platinum (DNA of A2780 cells) was “No DNA-bound platinum was detected”. For the same molecule, the “decomposition / deligation at pH 4.2” value ([2]; pH 4.2, six days) was “considerable decomposition”, the “decomposition at pH 8” value ([2]; pH 8, up to six days) was “no decomposition” and the “DNA binding, 25-mer oligonucleotide” value [3] was “does not exhibit any measurable DNA binding”. The BAK1 overexpression (BAK1) was 2-3 folds and the IC50 (CHO cell line) was 35 ± 5 µM.
